Numbers after ± are expanded uncertainties.
Experiment: mn = molality of the nth substance listed, in mol/kg
Details: Liquid

**Q.** Which mass density (332.77 K, 16012 kPa, m1 = 1) does the source give for `[Cl-].[Na+]` [sodium chloride] + O here?
**A.** 1028.34 ± 1 kg/m3

**Q.** And the mass density (332.83 K, 10001 kPa, m1 = 1)?
**A.** 1025.96 ± 1 kg/m3

**Q.** And the mass density (332.88 K, 12003 kPa, m1 = 1)?
**A.** 1026.78 ± 1 kg/m3

**Q.** What about the mass density (332.96 K, 18010 kPa, m1 = 1) of the same molecule?
**A.** 1029.12 ± 1 kg/m3

**Q.** And the mass density (333.11 K, 14007 kPa, m1 = 1)?
**A.** 1027.52 ± 1 kg/m3

**Q.** And the mass density (333.13 K, 10014 kPa, m1 = 2)?
**A.** 1060.45 ± 1 kg/m3

**Q.** And the mass density (333.13 K, 12007 kPa, m1 = 3)?
**A.** 1090.92 ± 1.1 kg/m3

**Q.** And the mass density (333.13 K, 14002 kPa, m1 = 3)?
**A.** 1091.64 ± 1.1 kg/m3

**Q.** And the mass density (333.16 K, 18002 kPa, m1 = 3)?
**A.** 1093.07 ± 1.1 kg/m3

**Q.** What about the mass density (333.17 K, 15999 kPa, m1 = 2) of the same molecule?
**A.** 1062.63 ± 1 kg/m3

**Q.** And the mass density (333.18 K, 18011 kPa, m1 = 2)?
**A.** 1063.39 ± 1 kg/m3

**Q.** And the mass density (333.19 K, 10002 kPa, m1 = 3)?
**A.** 1089.97 ± 1.1 kg/m3

**Q.** What about the mass density (333.19 K, 12008 kPa, m1 = 2) of the same molecule?
**A.** 1061.17 ± 1 kg/m3

**Q.** What about the mass density (333.2 K, 14003 kPa, m1 = 2) of the same molecule?
**A.** 1061.9 ± 1 kg/m3

**Q.** What about the mass density (333.21 K, 16006 kPa, m1 = 3) of the same molecule?
**A.** 1092.36 ± 1.1 kg/m3

**Q.** What about the mass density (333.52 K, 15999 kPa, m1 = 4) of the same molecule?
**A.** 1123.12 ± 1.1 kg/m3

**Q.** And the mass density (333.54 K, 12004 kPa, m1 = 4)?
**A.** 1121.22 ± 1.1 kg/m3

**Q.** And the mass density (333.55 K, 18008 kPa, m1 = 4)?
**A.** 1124.3 ± 1.1 kg/m3

**Q.** And the mass density (333.56 K, 14008 kPa, m1 = 4)?
**A.** 1122.36 ± 1.1 kg/m3

**Q.** What about the mass density (333.59 K, 10007 kPa, m1 = 4) of the same molecule?
**A.** 1120.38 ± 1.1 kg/m3

**Q.** What about the mass density (352.11 K, 10000 kPa, m1 = 4) of the same molecule?
**A.** 1109.5 ± 1.1 kg/m3

**Q.** And the mass density (352.14 K, 18001 kPa, m1 = 4)?
**A.** 1112.67 ± 1.1 kg/m3

**Q.** And the mass density (352.16 K, 12008 kPa, m1 = 4)?
**A.** 1109.8 ± 1.1 kg/m3

**Q.** And the mass density (352.17 K, 14050 kPa, m1 = 4)?
**A.** 1111.1 ± 1.1 kg/m3

**Q.** What about the mass density (352.19 K, 16005 kPa, m1 = 4) of the same molecule?
**A.** 1111.53 ± 1.1 kg/m3

**Q.** What about the mass density (352.65 K, 12002 kPa, m1 = 1) of the same molecule?
**A.** 1015.47 ± 0.99 kg/m3

**Q.** What about the mass density (353.13 K, 18026 kPa, m1 = 2) of the same molecule?
**A.** 1052.55 ± 1 kg/m3

**Q.** What about the mass density (353.14 K, 12005 kPa, m1 = 2) of the same molecule?
**A.** 1050.19 ± 1 kg/m3

**Q.** And the mass density (353.16 K, 14002 kPa, m1 = 3)?
**A.** 1079.82 ± 1 kg/m3

**Q.** What about the mass density (353.16 K, 14003 kPa, m1 = 2) of the same molecule?
**A.** 1050.95 ± 1 kg/m3

**Q.** And the mass density (353.19 K, 16007 kPa, m1 = 2)?
**A.** 1051.71 ± 1 kg/m3

**Q.** What about the mass density (353.2 K, 9995 kPa, m1 = 1) of the same molecule?
**A.** 1014.63 ± 0.99 kg/m3

**Q.** And the mass density (353.2 K, 13999 kPa, m1 = 1)?
**A.** 1016.06 ± 0.99 kg/m3

**Q.** What about the mass density (353.23 K, 9996 kPa, m1 = 2) of the same molecule?
**A.** 1049.38 ± 1 kg/m3

**Q.** And the mass density (353.23 K, 10007 kPa, m1 = 3)?
**A.** 1078.28 ± 1 kg/m3

**Q.** What about the mass density (353.23 K, 16008 kPa, m1 = 3) of the same molecule?
**A.** 1080.53 ± 1 kg/m3

**Q.** What about the mass density (353.27 K, 12003 kPa, m1 = 3) of the same molecule?
**A.** 1079.02 ± 1 kg/m3

**Q.** What about the mass density (353.28 K, 17998 kPa, m1 = 1) of the same molecule?
**A.** 1017.65 ± 0.99 kg/m3

**Q.** And the mass density (353.28 K, 18002 kPa, m1 = 3)?
**A.** 1081.24 ± 1 kg/m3

**Q.** What about the mass density (372.7 K, 18017 kPa, m1 = 4) of the same molecule?
**A.** 1100.7 ± 1.1 kg/m3

**Q.** And the mass density (372.71 K, 14005 kPa, m1 = 4)?
**A.** 1099 ± 1.1 kg/m3

**Q.** What about the mass density (372.72 K, 10019 kPa, m1 = 4) of the same molecule?
**A.** 1097.2 ± 1.1 kg/m3

**Q.** And the mass density (372.75 K, 16043 kPa, m1 = 4)?
**A.** 1100.12 ± 1.1 kg/m3

**Q.** And the mass density (372.76 K, 12007 kPa, m1 = 4)?
**A.** 1098.5 ± 1.1 kg/m3

**Q.** And the mass density (372.96 K, 16007 kPa, m1 = 1)?
**A.** 1003.93 ± 0.98 kg/m3

**Q.** And the mass density (373 K, 18001 kPa, m1 = 1)?
**A.** 1004.74 ± 0.98 kg/m3

**Q.** And the mass density (373.03 K, 12005 kPa, m1 = 1)?
**A.** 1002.25 ± 0.98 kg/m3

**Q.** What about the mass density (373.03 K, 14001 kPa, m1 = 1) of the same molecule?
**A.** 1003.21 ± 0.98 kg/m3

**Q.** And the mass density (373.1 K, 11999 kPa, m1 = 2)?
**A.** 1038.08 ± 1 kg/m3

**Q.** And the mass density (373.11 K, 10005 kPa, m1 = 3)?
**A.** 1066.26 ± 1 kg/m3

**Q.** And the mass density (373.11 K, 17997 kPa, m1 = 3)?
**A.** 1069.36 ± 1 kg/m3

**Q.** And the mass density (373.16 K, 10001 kPa, m1 = 1)?
**A.** 1001.31 ± 0.98 kg/m3

**Q.** What about the mass density (373.16 K, 14004 kPa, m1 = 3) of the same molecule?
**A.** 1067.77 ± 1 kg/m3

**Q.** And the mass density (373.17 K, 12008 kPa, m1 = 3)?
**A.** 1067.01 ± 1 kg/m3

**Q.** What about the mass density (373.2 K, 14002 kPa, m1 = 2) of the same molecule?
**A.** 1038.84 ± 1 kg/m3

**Q.** What about the mass density (373.22 K, 16005 kPa, m1 = 3) of the same molecule?
**A.** 1068.52 ± 1 kg/m3

**Q.** And the mass density (392.6 K, 10002 kPa, m1 = 1)?
**A.** 986.9 ± 0.97 kg/m3

**Q.** What about the mass density (392.65 K, 12008 kPa, m1 = 1) of the same molecule?
**A.** 987.5 ± 0.97 kg/m3

**Q.** And the mass density (392.65 K, 14005 kPa, m1 = 1)?
**A.** 988.82 ± 0.97 kg/m3

**Q.** And the mass density (392.65 K, 16001 kPa, m1 = 1)?
**A.** 989.54 ± 0.97 kg/m3

**Q.** What about the mass density (392.65 K, 18001 kPa, m1 = 1) of the same molecule?
**A.** 990.45 ± 0.97 kg/m3

**Q.** What about the mass density (392.77 K, 14002 kPa, m1 = 4) of the same molecule?
**A.** 1088.52 ± 1.1 kg/m3

**Q.** And the mass density (392.78 K, 15999 kPa, m1 = 4)?
**A.** 1089.3 ± 1.1 kg/m3

**Q.** What about the mass density (392.79 K, 10006 kPa, m1 = 4) of the same molecule?
**A.** 1086.96 ± 1.1 kg/m3

**Q.** What about the mass density (392.81 K, 12002 kPa, m1 = 4) of the same molecule?
**A.** 1087.71 ± 1.1 kg/m3

**Q.** And the mass density (392.82 K, 18008 kPa, m1 = 4)?
**A.** 1090.43 ± 1.1 kg/m3

**Q.** What about the mass density (393.09 K, 14006 kPa, m1 = 3) of the same molecule?
**A.** 1054.75 ± 1 kg/m3

**Q.** What about the mass density (393.17 K, 10001 kPa, m1 = 3) of the same molecule?
**A.** 1053.22 ± 1 kg/m3

**Q.** And the mass density (393.17 K, 16002 kPa, m1 = 3)?
**A.** 1055.54 ± 1 kg/m3

**Q.** And the mass density (393.17 K, 18005 kPa, m1 = 2)?
**A.** 1027.22 ± 1 kg/m3

**Q.** What about the mass density (393.18 K, 10003 kPa, m1 = 2) of the same molecule?
**A.** 1023.83 ± 1 kg/m3

**Q.** And the mass density (393.2 K, 11995 kPa, m1 = 2)?
**A.** 1024.64 ± 1 kg/m3

**Q.** What about the mass density (393.22 K, 13999 kPa, m1 = 2) of the same molecule?
**A.** 1025.54 ± 1 kg/m3

**Q.** What about the mass density (393.23 K, 16003 kPa, m1 = 2) of the same molecule?
**A.** 1026.34 ± 1 kg/m3

**Q.** What about the mass density (393.24 K, 12008 kPa, m1 = 3) of the same molecule?
**A.** 1053.85 ± 1 kg/m3

**Q.** And the mass density (393.26 K, 17997 kPa, m1 = 3)?
**A.** 1056.25 ± 1 kg/m3

**Q.** What about the mass density (412.86 K, 10007 kPa, m1 = 4) of the same molecule?
**A.** 1072.35 ± 1 kg/m3

**Q.** What about the mass density (412.92 K, 12005 kPa, m1 = 4) of the same molecule?
**A.** 1073.15 ± 1 kg/m3

**Q.** What about the mass density (412.94 K, 14004 kPa, m1 = 4) of the same molecule?
**A.** 1073.97 ± 1 kg/m3

**Q.** And the mass density (413.01 K, 16003 kPa, m1 = 4)?
**A.** 1074.76 ± 1 kg/m3

**Q.** What about the mass density (413.06 K, 18002 kPa, m1 = 4) of the same molecule?
**A.** 1075.53 ± 1 kg/m3

**Q.** What about the mass density (413.11 K, 17998 kPa, m1 = 2) of the same molecule?
**A.** 1012.96 ± 0.99 kg/m3

**Q.** And the mass density (413.12 K, 14007 kPa, m1 = 2)?
**A.** 1011.33 ± 0.99 kg/m3

**Q.** What about the mass density (413.12 K, 16004 kPa, m1 = 1) of the same molecule?
**A.** 973.21 ± 0.96 kg/m3

**Q.** And the mass density (413.14 K, 10008 kPa, m1 = 2)?
**A.** 1009.53 ± 0.99 kg/m3

**Q.** And the mass density (413.14 K, 16003 kPa, m1 = 2)?
**A.** 1012.21 ± 0.99 kg/m3

**Q.** And the mass density (413.14 K, 18004 kPa, m1 = 3)?
**A.** 1041.53 ± 1 kg/m3

**Q.** And the mass density (413.15 K, 18001 kPa, m1 = 1)?
**A.** 974.15 ± 0.96 kg/m3

**Q.** What about the mass density (413.16 K, 10006 kPa, m1 = 1) of the same molecule?
**A.** 970.45 ± 0.96 kg/m3

**Q.** What about the mass density (413.17 K, 12009 kPa, m1 = 1) of the same molecule?
**A.** 971.23 ± 0.96 kg/m3

**Q.** And the mass density (413.17 K, 16001 kPa, m1 = 3)?
**A.** 1040.63 ± 1 kg/m3

**Q.** What about the mass density (413.18 K, 12003 kPa, m1 = 2) of the same molecule?
**A.** 1010.61 ± 0.99 kg/m3

**Q.** And the mass density (413.18 K, 13998 kPa, m1 = 1)?
**A.** 972.24 ± 0.96 kg/m3

**Q.** And the mass density (413.2 K, 12005 kPa, m1 = 3)?
**A.** 1038.72 ± 1 kg/m3

**Q.** What about the mass density (413.23 K, 10007 kPa, m1 = 3) of the same molecule?
**A.** 1038.23 ± 1 kg/m3

Reference: the NIST ThermoML archive (doi:10.1021/je400459y)
